Values joined by “and” are separate entries in the source; they are usually repeats but may differ in a detail not shown here. Equal values may be shown once. Read-outs that look alike come from different tables or passages of the source.
Legend:
[1] = molecular target: T1, Sigma-1 Receptor (S1R) (Homo sapiens, UniProt Q99720); experiment: In-vitro binding assay, Sigma-1 receptor; conditions: Cheng Prusoff; Eurofins Panlabs; source Johnston et al. 2019 and NC20-PHARM-2
T1 construct: Eurofins Panlabs Taiwan; Ltd. (performed the assay)
Description: (§1) In-vitro binding assays performed at Eurofins Panlabs Taiwan. Ltd. Specific ligand binding was determined in the presence of an excess of unlabelled ligand.

[2] = tested on: BDNF secretion from B104 neuroblastoma cells; experiment: BDNF in-situ ELISA, B104 neuroblastoma cells; format: cell-based, rat; conditions: together with pridopidine
[3] = molecular target: T2, Sigma-2 receptor (S2R) (Homo sapiens, UniProt Q5BJF2); experiment: In-vitro binding assay, Sigma-2 receptor; conditions: Cheng Prusoff; Eurofins Panlabs; source Johnston et al. 2019 and NC20-PHARM-2
T2 construct: Eurofins Panlabs Taiwan; Ltd. (performed the assay)
Description: as §1

[4] = tested on: RGCs; conditions: topical to the HSI treated eye, paper example
[5] = tested on: retinitis pigmentosa; conditions: periodic oral administration; paper example
[6] = tested on: wet AMD; conditions: long-term oral administration; paper example
[7] = tested on: optic nerve axons; conditions: for Number of optic nerve axons, Lasered eye, Mean / Number of optic nerve axons, Control eye, Mean / loss of optic nerve axons, Difference % (LC eye vs control eye): day 14; for Number of optic nerve axons, Control eye, Mean: contralateral eye; for loss of optic nerve axons, Difference % (LC eye vs control eye): vehicle 27.5% in text; for Axonal protection (%): vs vehicle group
Description: Neuroprotective preservation of visual function in glaucoma and other optic neuropathies depends not only on preservation of cell bodies, but also on maintaining connectivity between the eye and the brain. Connectivity is preserved by protecting RGC axons which make up the optic nerve. […] Unilateral induction of IOP elevation was performed twice, at day 0 and day 7. IOP increase was induced by 532 nm diode laser (Oculight® TX; Iridex) photocoagulation of episcleral veins, as previously described. IOP was measured with a TonoLab tonometer.
IOP was measured at baseline, and after laser photocoagulation on days 1, 4, 7, 8, and 14.
On day 14, rats were sacrificed by transcardial perfusion, first with 0.9% NaCl solution, then with 4% PFA in 0.1M phosphate buffer, pH 7.4. Eyes and optic nerves were collected for immunohistochemical analysis.
Optic nerves were postfixed in 4% PFA (in 0.1M phosphate buffer, pH 7.4), placed in 1% osmium, dehydrated in ascending alcohol concentrations, and placed in 1% uranyl acetate in 100% ethanol for 1 hour. Optic nerves were embedded in epoxy resin mixture at 60° C. for 48 hours and 1 μm sections prepared. Axon number was estimated using stereology.
High IOPs immediately after LC procedure could be associated with retinal ischemia, and low IOP's could indicate failure to establish the model.

[8] = tested on: dry AMD; conditions: long-term oral administration; paper example
Text: The pathological correlation for the decline of visual acuity is the progressive expansion of the degenerated area of the retina (i.e., geographic atrophy), specifically in the macula.

[9] = tested on: optic neuropathy; conditions: long-term oral administration; paper example
[10] = tested on: Retinal Ganglion Cells (RGCs); conditions: for RGC Loss (%): day 41, OD (OHT) vs OS eye, mean±SEM, DDW control 43±6%; for RGC neuroprotection (%): vs DDW control
Description: In this model, sclerosis of the aqueous veins via retrograde introduction of hypertonic saline increases intraocular pressure (IOP). Hypertonic saline injection (HSI) was performed on day 0 and day 7 into the episcleral veins of the right eye of pigmented Brown Norway. Rats were sedated with ketamine and xylazine (40-80 and 5-10 mg/kg, respectively), kept warm and eyes moist to avoid desiccation during the procedure. Eye surface was treated with erythromycin (0.5%). On Days 0 and 7, hypertonic saline solution (250 μL, NaCl, 1.8-2.0M) was injected into the limbal vascular plexus via different episcleral veins in the OHT eye. For IOP measurement, corneas were anaesthetized with 0.5% proparacaine HCl ophthalmic solution and then IOP measured using a Tono-Pen Vet. Ten repeated readings were averaged from each eye. […] Over the course of the study, animals were clinically evaluated daily, and IOP and body weight measured weekly (FIG. 1).
The number of RGCs was quantified using immunofluorescent staining for the RGC marker brain-specific homeobox/POU domain protein 3A (Brn-3a), followed by image analysis. Eyes were immediately enucleated following CO2 euthanization and fixed in paraformaldehyde (PFA, 4%) at 4° C. for 24 hours, then dissected in PBS. Retinas were permeabilized in PBS+0.5% Triton X-100 for 15 minutes, frozen at −80° C. for 15 minutes, then rinsed in PBS-0.5% Triton. […] Four radial cuts were made in the retina and it was flat-mounted. Two regions of interest (medial and distal) were acquired in each quadrant (FIG. 3) with fluorescent microscopy, and RGCs counted using ImageJ.
The percent of RGC loss was calculated by comparing the number of RGC counts per retina in the OD eye to that in the OS eye from the same animal. […] RGC neuroprotection (%) in each animal was calculated as following: [100×((1−RGC Loss (%)/Average RGC Loss (%) in Control group))]. […] Representative images of RGC staining can be seen in FIG. 5.

[11] = tested on: BDNF secretion from B104 neuroblastoma cells; conditions: in-situ ELISA; Geva, et al. 2016; cited from earlier work
[12] = tested on: glaucoma; conditions: long-term oral administration; paper example
[13] = tested on: laser coagulation (LC) model of experimental glaucoma; conditions: for Area under curve (AUC) of IOP, Total Area: lasered eyes, vehicle 272, contralateral control 185
Description: (§2) Unilateral induction of IOP elevation was performed twice, at day 0 and day 7. IOP increase was induced by 532 nm diode laser (Oculight® TX; Iridex) photocoagulation of episcleral veins, as previously described. IOP was measured with a TonoLab tonometer.
(§3) IOP was measured at baseline, and after laser photocoagulation on days 1, 4, 7, 8, and 14 (FIG. 10).

[14] = tested on: RGCs; conditions: day 14; for number of RGCs per retinal area, Control eye, Mean: contralateral eye; for RGC Difference % (decrease, lasered vs control eye): vehicle 16.7%
Description: In Wistar rats, the laser coagulation (LC) model of experimental glaucoma was utilized.
as §2, §3
On day 14, rats were sacrificed by transcardial perfusion, first with 0.9% NaCl solution, then with 4% PFA in 0.1M phosphate buffer, pH 7.4. Eyes and optic nerves were collected for immunohistochemical analysis. The number of RGCs was quantified using immunofluorescent staining for RNA-binding protein with multiple splicing (RBPMS), an RGC-specific marker, and DAPI nuclear stain followed by stereological analysis of the entire retina (FIG. 11).

T2 sequence (Q5BJF2 whole entry, species assumed): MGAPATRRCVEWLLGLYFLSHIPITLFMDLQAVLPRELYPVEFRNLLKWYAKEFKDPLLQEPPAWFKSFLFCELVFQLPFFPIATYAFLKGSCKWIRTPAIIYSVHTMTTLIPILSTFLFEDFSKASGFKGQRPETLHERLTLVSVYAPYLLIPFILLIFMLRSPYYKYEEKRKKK
T1 sequence (Q99720 whole entry, species assumed): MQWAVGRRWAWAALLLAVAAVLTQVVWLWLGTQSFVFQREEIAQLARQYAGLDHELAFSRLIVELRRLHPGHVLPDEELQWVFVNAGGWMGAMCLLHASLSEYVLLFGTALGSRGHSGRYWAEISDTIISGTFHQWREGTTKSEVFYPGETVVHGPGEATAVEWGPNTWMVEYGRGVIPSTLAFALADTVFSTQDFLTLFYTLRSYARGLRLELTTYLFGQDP

In the case of CCCN1CCC(O)(c2cccc(S(C)(=O)=O)c2)CC1 [Compound 1], the Ki [1] is reported as 370 nM, the “effect with pridopidine on BDNF secretion” value [2] is reported as “synergistic effect” and the Ki [3] is reported as > 100000 nM.
With CCCN1CC[C@@H](c2cccc(S(C)(=O)=O)c2)[C@@H](O)C1 [Compound 4] the Ki [1] was 2900 nM, the “effect with pridopidine on BDNF secretion” value [2] was “synergistic effect” and the Ki [3] was > 100000 nM.
For CCCN1CCC(c2cccc(S(C)(=O)=O)c2)CC1 [Pridopidine, 4-(3-(Methylsulfonyl)phenyl)-1-propylpiperidine], the “viability of the RGCs and RGC loss” value ([4]; groups 2, 3 and 4 vs group 1) was “significantly increases viability of the RGCs and reduces RCG loss”, the “protection of RGC axons” value [4] was “protects RGC axons” and the “efficacy in retinitis pigmentosa patients” value [5] was “effective in treating human patients with retinitis pigmentosa”. The “efficacy in wet AMD patients” value [6] was “effective in treating human patients with wet AMD”, the “Number of optic nerve axons, Lasered eye, Mean” value ([7]; 3 mg/kg oral daily) was 358 and the “Number of optic nerve axons, Control eye, Mean” value ([7]; 3 mg/kg oral daily) was 394. The “loss of optic nerve axons, Difference % (LC eye vs control eye)” value (shortened to “loss of optic nerve axons, Difference %”) ([7]; 3 mg/kg oral daily) was 8.6%, the “Axonal protection (%)” value ([7]; 3 mg/kg oral daily) was 69% and the “Number of optic nerve axons, Lasered eye, Mean” value ([7]; 30 mg/kg oral daily) was 363. For the same compound, the “Number of optic nerve axons, Control eye, Mean” value ([7]; 30 mg/kg oral daily) was 433, the “loss of optic nerve axons, Difference %” value ([7]; 30 mg/kg oral daily) was 15% and the “Axonal protection (%)” value ([7]; 30 mg/kg oral daily) was 45%. For the same compound, the “Number of optic nerve axons, Lasered eye, Mean” value ([7]; 60 mg/kg oral daily) was 365, the “Number of optic nerve axons, Control eye, Mean” value ([7]; 60 mg/kg oral daily) was 395 and the “loss of optic nerve axons, Difference %” value ([7]; 60 mg/kg oral daily) was 7.24% and 7.6%. The “Axonal protection (%)” value ([7]; 60 mg/kg oral daily) was 74%, the “efficacy in dry AMD patients” value [8] was “effective in treating human patients with dry AMD” and the “efficacy in optic neuropathy patients” value [9] was “effective in treating human patients with optic neuropathy”. For the same compound, the “RGC Loss (%)” value ([10]; 3 mg/kg oral daily) was 25±7% and 25%, the “RGC neuroprotection (%)” value ([10]; 3 mg/kg oral daily) was 42% and the “RGC Loss (%)” value ([10]; 30 mg/kg oral daily) was 21±6% and 21%. For the same compound, the “RGC neuroprotection (%)” value ([10]; 30 mg/kg oral daily) was 50%, the “RGC Loss (%)” value ([10]; 60 mg/kg oral daily) was 7±9% and 7% and the “RGC neuroprotection (%)” value ([10]; 60 mg/kg oral daily) was 83%. For the same compound, the “BDNF secretion in rat neuroblastoma cells” value [11] was “dose dependent increase in BDNF secretion”, the “efficacy in glaucoma patients” value [12] was “effective in treating human patients with glaucoma” and the “Area under curve (AUC) of IOP, Total Area” value (“Area under curve (AUC)” for short) ([13]; 3 mg/kg oral daily) was 255. The “Area under curve (AUC)” value ([13]; 30 mg/kg oral daily) was 289, the “Area under curve (AUC)” value ([13]; 60 mg/kg oral daily) was 295 and the “effect on IOP of lasered eyes” value ([13]; 3, 30 and 60 mg/kg oral daily, one-way ANOVA, P≥0.26) was “no difference in the IOP of lasered eyes”. For the same compound, the “number of RGCs per retinal area, Lasered eye, Mean” value ([14]; 3 mg/kg oral daily) was 1315, the “number of RGCs per retinal area, Control eye, Mean” value ([14]; 3 mg/kg oral daily) was 1404 and the “RGC Difference % (decrease, lasered vs control eye)” value ([14]; 3 mg/kg oral daily) was 5.2%. The “number of RGCs per retinal area, Lasered eye, Mean” value ([14]; 30 mg/kg oral daily) was 1336, the “number of RGCs per retinal area, Control eye, Mean” value ([14]; 30 mg/kg oral daily) was 1444 and the “RGC Difference % (decrease, lasered vs control eye)” value ([14]; 30 mg/kg oral daily) was 7.7%. For the same compound, the “number of RGCs per retinal area, Lasered eye, Mean” value ([14]; 60 mg/kg oral daily) was 1198, the “number of RGCs per retinal area, Control eye, Mean” value ([14]; 60 mg/kg oral daily) was 1417 and the “RGC Difference % (decrease, lasered vs control eye)” value ([14]; 60 mg/kg oral daily) was 13.9%.
